# Assays:
# [1] = toxicity (LD50, per os, mice); format: in vivo
# Text: (§1) The inventive compounds have very interesting antimicrobial and amoebicidal utilities which are ascertained through the usual and well known in vitro tests. Moreover, they display an outstanding in vivo activity against Trichomonas vaginalis, a protozoan which is responsible for itching and other painful and troublesome diseases of the vaginal tract. Their in vivo activity, expressed as an ED50 value, is better than that of other known 2-nitroimidazole derivatives, and their activity is, moreover, coupled with a very low toxicity, expressed as an LD50 value. These properties indicate that the compounds of the invention are very promising anti-Trichomonas agents both from the effectiveness and the safety standpoint, owing to their […] and their high therapeutic indexes (T.I.). Since a therapeutic index is expressed by the following ratio: [formula] it is clear that the higher the T.I., the safer a drug is.
# Trichomonas vaginalis = assay: in vivo activity against Trichomonas vaginalis (ED50, per os, mice) and therapeutic index; details: for ED50: po, Trichomonas vaginalis
# Text: as §1
# In the following Table, results representative of the inventive compounds are reported.
SMILES,LD50 [1] [mg/kg],"T.I. (LD50/ED50) (Trichomonas vaginalis; per os, mice)","ED50 (Trichomonas vaginalis; per os, mice) [mg/kg]","T.I. compared with metronidazole, in words (Trichomonas vaginalis; vs metronidazole, LD50/ED50)","ED50 compared with metronidazole, in words (Trichomonas vaginalis; vs metronidazole, per os, mice)"
"Cn1c(C(C)(C)OC(=O)Oc2ccccc2)cnc1[N+](=O)[O-] [Example 1, α, α,1-Trimethyl-2-nitroimidazole-5-methanol phenylcarbonate]",3250,1969,1.65,better T.I. than metronidazole,better ED50
"Cc1ncc([N+](=O)[O-])n1CCO [metronidazole, 1-(2-hydroxyethyl)-2-methyl-5-nitroimidazole, reference compound]",3800,658,5.77,,
